One data set relates to GAPDH. The data set is described as follows: GAPDH inhibition in HEK-293 cells, same assay. Type of data set: cell-based, human. Further details: GAPDH max inhibition: unit not given here. The following applies: for 2D GAPDH 20 nM inhibition: 2D (dual-dose); for GAPDH max inhibition: Table 6.
A further data set has as its system NRas mRNA. Description: NRas mRNA expression in HEK-293 cells, branched DNA assay. The data set is classed as cell-based, human. Further details: NRAS max inhibition: unit not given here. The following applies: for IC20 / IC50 / IC80 / max. inhib. [%]:: HEK293 cells: dose-response; for NRAS max inhibition: Table 6. How it is done:
The ASOs of the present disclosure were tested for their ability to reduce NRas mRNA expression in HEK-293 cells. The HEK-293 cells were grown in cell culture media and seeded onto a 96 well plate at a density of 20,000 cells/well. ASOs were tested in two separate cohorts: 2 doses or 5 doses were given to the HEK-293 cells (See TABLES 4, 5 and 6) at final concentrations of 20 nM and 2 nM respectively. The assay used Lipofectamine2000 transfection and a 48 hr treatment cycle, with incubation at 37° C. and 5% C02. Analysis of the mRNA expression was then carried out using a branched DNA assay.

The results in this text go back to US20220354963A1, “EXTRACELLULAR VESICLE LINKED TO MOLECULES AND USES THEREOF” (Codiak BioSciences, Inc., priority 2019, published 2022).

“SEQ ID NO: 236: NRas ASO, starting nucleotide 421, length 20 (CCCCGAGATGTTCCCTGGTG; chemistry not given here)”: in the data set on GAPDH, the “2D GAPDH 20 nM inhibition” value was 34.05 and the GAPDH max inhibition is reported as 40.06. Also, in the data set on NRas mRNA, it took 0.053 nM to reach the 20% level (IC20), the IC50 worked out at 0.349 nM, the 80% effect level (IC80) was put at 4.78 nM and the “max. inhib. [%]:” value is listed as 87.3%. Besides, the NRAS max inhibition with NRas mRNA worked out at 91.51.
As to “257 (TCTGCCCGGCCAAACAGCGT; chemistry not given here) [compound 257]”, in the data set with GAPDH, the “2D GAPDH 20 nM inhibition” value is 21.09 and the GAPDH max inhibition was 30.55. Further, in the data set with NRas mRNA, the IC20 worked out at 0.069 nM, half-maximal inhibition (IC50) was put at 0.364 nM, the IC80 was 3.67 nM and the “max. inhib. [%]:” value was 87.3%. Further, the NRAS max inhibition with NRas mRNA is on record as 91.79.
Regarding “224 (GCTGTTTGGCCGGGCAGAAA; chemistry not given here) [compound 224]”, in the data set with NRas mRNA, the IC20 was 0.639 nM, the IC50 worked out at 1.93 nM and the “max. inhib. [%]:” value was found to be 72.0%.
On to “252 (CCAAACAGCGTAACC; chemistry not given here) [compound 252]”, for which, in the data set on GAPDH, the “2D GAPDH 20 nM inhibition” value is on record as 13.40 and the GAPDH max inhibition was found to be 29.98. In the data set on NRas mRNA, the IC20 worked out at 0.072 nM, the IC50 worked out at 0.296 nM, the IC80 was 1.95 nM and the “max. inhib. [%]:” value is given as 88.4%. The NRAS max inhibition in the data set with NRas mRNA is 91.49.
“238 (CTCCCCGAGATGTTCCCTGG; chemistry not given here) [compound 238]”: in the data set on GAPDH, the “2D GAPDH 20 nM inhibition” value is given as 22.48 and the GAPDH max inhibition stood at 26.33. Besides, in the data set on NRas mRNA, the IC20 was 0.139 nM, the IC50 stood at 0.646 nM, it took 4.79 nM to reach the 80% level (IC80) and the “max. inhib. [%]:” value stood at 88.9%. For the same substance, the NRAS max inhibition in the data set with NRas mRNA is on record as 90.92.
Consider “227 (GTTTGGCCGGGCAGAAACTC; chemistry not given here) [compound 227]”, for which, in the data set on GAPDH, the “2D GAPDH 20 nM inhibition” value is reported as 24.56 and the GAPDH max inhibition was determined as 18.30. Further, in the data set on NRas mRNA, the 20% effect level (IC20) was put at 0.087 nM, the IC50 was found to be 0.413 nM, the concentration for an effect of 80% (IC80) stood at 4.05 nM and the “max. inhib. [%]:” value was found to be 86.3%. The substance also displayed an NRAS max inhibition in the data set with NRas mRNA of 87.95.
Take “200 (GTTATGGTCAGTTAATAGAA; chemistry not given here) [compound 200]”: in the data set with GAPDH, the “2D GAPDH 20 nM inhibition” value is 33.52 and the GAPDH max inhibition was 38.68. Also, in the data set on NRas mRNA, the IC20 is 0.041 nM, it took 0.16 nM to reach half-maximal inhibition (IC50), the IC80 worked out at 0.666 nM and the “max. inhib. [%]:” value is 97.6%. Also, the NRAS max inhibition with NRas mRNA was determined as 98.68.
Turning to “201 (CACCAGGGAACATCTCGGGG; chemistry not given here) [compound 201]”, in the data set with GAPDH, the “2D GAPDH 20 nM inhibition” value is listed as 16.86 and the GAPDH max inhibition came to 45.30. In addition, in the data set on NRas mRNA, the IC20 came out at 0.024 nM, the IC50 was 0.1 nM, the IC80 was found to be 0.455 nM and the “max. inhib. [%]:” value came out at 97.2%. In addition, the NRAS max inhibition in the data set with NRas mRNA was found to be 98.45.
For the substance “231 (GCCGGGCAGAAACTCCGCTG; chemistry not given here) [compound 231]”, in the data set with GAPDH, the “2D GAPDH 20 nM inhibition” value came to 36.92 and the GAPDH max inhibition was 29.21. In the data set with NRas mRNA, it took 0.18 nM to reach the 20% level (IC20), the IC50 came to 0.538 nM, the IC80 was 2.1 nM and the “max. inhib. [%]:” value turned out to be 90.4%. In the data set on NRas mRNA, this substance showed an NRAS max inhibition of 93.63.
Regarding “254 (GCCAAACAGCGTAAC; chemistry not given here) [compound 254]”, in the data set on GAPDH, the “2D GAPDH 20 nM inhibition” value is given as 20.10 and the GAPDH max inhibition was 32.96. Besides, in the data set with NRas mRNA, the IC20 amounted to 0.067 nM, the IC50 was 0.336 nM, it took 2.11 nM to reach the 80% level (IC80) and the “max. inhib. [%]:” value was 93.4%. The same substance came in with an NRAS max inhibition in the data set on NRas mRNA of 96.11.
In the case of “250 (GCCAAACAGCGTAACCCCTT; chemistry not given here) [compound 250]”, in the data set on GAPDH, the “2D GAPDH 20 nM inhibition” value is 27.30 and the GAPDH max inhibition was 33.44. Moreover, in the data set with NRas mRNA, it took 0.173 nM to reach the 20% level (IC20); the midpoint of inhibition, the IC50, lay at 0.715 nM; the 80% effect level (IC80) was put at 5.68 nM; the “max. inhib. [%]:” value was 86.3%. For the same substance, the NRAS max inhibition in the data set on NRas mRNA turned out to be 88.02.
As to “247 (AAACAGCGTAACCCCTTCTT; chemistry not given here) [compound 247]”, in the data set on GAPDH, the “2D GAPDH 20 nM inhibition” value is recorded as 25.39 and the GAPDH max inhibition was 25.35. Further, in the data set on NRas mRNA, it took 0.122 nM to reach the 20% level (IC20), half-maximal inhibition (IC50) required 0.561 nM, the IC80 is 4.14 nM and the “max. inhib. [%]:” value is given as 88.8%. This substance also had an NRAS max inhibition with NRas mRNA of 90.09.
On to “239 (AGGCTCCCCGAGATGTTCCC; chemistry not given here) [compound 239]”, for which, in the data set with GAPDH, the “2D GAPDH 20 nM inhibition” value came out at 39.01 and the GAPDH max inhibition turned out to be 37.62. Also, in the data set on NRas mRNA, the IC20 came out at 0.027 nM, the IC50 stood at 0.159 nM, the IC80 amounted to 1.46 nM and the “max. inhib. [%]:” value is 90.4%. The NRAS max inhibition in the data set on NRas mRNA is recorded as 94.35.
“206 (GAGCCTGGTTGGAAGCTGCA; chemistry not given here) [compound 206]”: in the data set on GAPDH, the “2D GAPDH 20 nM inhibition” value is given as 40.87 and the GAPDH max inhibition was determined as 44.21. Moreover, in the data set with NRas mRNA, it took 0.117 nM to reach the 20% level (IC20), the IC50 is 0.471 nM, the 80% effect level (IC80) was put at 2.58 nM and the “max. inhib. [%]:” value was determined as 90.9%. Further, in the data set with NRas mRNA, the NRAS max inhibition turned out to be 94.95.
“185 (TCCGAGAGTGTTGCCTCGCA; chemistry not given here) [compound 185]”: in the data set on NRas mRNA, the 20% effect level (IC20) was put at 0.074 nM, the IC50 is 0.349 nM, the IC80 amounted to 3.8 nM and the “max. inhib. [%]:” value is 85.4%.
For “223 (CGCTGTTTGGCCGGGCAGAA; chemistry not given here) [compound 223]”, in the data set with GAPDH, the “2D GAPDH 20 nM inhibition” value amounted to 20.53 and the GAPDH max inhibition worked out at 18.44. In addition, in the data set with NRas mRNA, the IC20 was 0.121 nM, inhibition was half-maximal at 0.581 nM (IC50), the IC80 came out at 35.4 nM and the “max. inhib. [%]:” value stood at 80.8%. The same substance had an NRAS max inhibition in the data set with NRas mRNA of 85.75.
In the case of “218 (GTTACGCTGTTTGGCCG; chemistry not given here) [compound 218]”, in the data set with GAPDH, the “2D GAPDH 20 nM inhibition” value is on record as 28.11 and the GAPDH max inhibition came out at 25.71. In the data set on NRas mRNA, the IC20 stood at 0.139 nM, the half-inhibitory concentration (IC50) is 0.427 nM, it took 1.94 nM to reach the 80% level (IC80) and the “max. inhib. [%]:” value is 88.0%. The NRAS max inhibition in the data set with NRas mRNA was 90.00.
For “SEQ ID NO: 232: NRas ASO, starting nucleotide 400, length 20 (CCGGGCAGAAACTCCGCTGA; chemistry not given here)”, in the data set with GAPDH, the “2D GAPDH 20 nM inhibition” value is reported as 36.10 and the GAPDH max inhibition turned out to be 53.16. In the data set with NRas mRNA, the IC20 was 0.048 nM, the IC50 stood at 0.245 nM, the 80% effect concentration (IC80) came to 1.59 nM and the “max. inhib. [%]:” value stood at 93.2%. The same substance returned an NRAS max inhibition in the data set on NRas mRNA of 95.91.
Turning to “248 (CAAACAGCGTAACCCCTTCT; chemistry not given here) [compound 248]”, in the data set on GAPDH, the “2D GAPDH 20 nM inhibition” value is given as 30.77 and the GAPDH max inhibition came to 37.96. Further, in the data set with NRas mRNA, the IC20 turned out to be 0.051 nM, the IC50 worked out at 0.288 nM, the IC80 was 2.4 nM and the “max. inhib. [%]:” value is 91.0%. The substance further gave an NRAS max inhibition with NRas mRNA of 93.72.
As for “253 (CGGCCAAACAGCGTAAC; chemistry not given here) [compound 253]”, in the data set with GAPDH, the “2D GAPDH 20 nM inhibition” value is given as 40.44 and the GAPDH max inhibition came to 29.34. Also, in the data set with NRas mRNA, the 20% effect level (IC20) was put at 0.108 nM, it took 0.461 nM to reach half-maximal inhibition (IC50), the IC80 was found to be 2.79 nM and the “max. inhib. [%]:” value amounted to 90.4%. Besides, in the data set on NRas mRNA, the NRAS max inhibition is recorded as 94.40.
In the case of “264 (GCGGAGTTTCTGCCCGGCCA; chemistry not given here) [compound 264]”, in the data set on GAPDH, the “2D GAPDH 20 nM inhibition” value worked out at 10.43 and the GAPDH max inhibition is reported as 26.13. In the data set on NRas mRNA, the 20% effect level (IC20) was put at 0.039 nM, the IC50 is 0.229 nM, the 80% effect concentration (IC80) came out at 2.43 nM and the “max. inhib. [%]:” value is 88.5%. For the same substance, in the data set on NRas mRNA, the NRAS max inhibition came to 91.73.

A word on the IC20: it is the point of the concentration-response curve where the effect stands at 20%. By IC50 is commonly meant the concentration at which inhibition is half-maximal. The IC80 is the concentration at which the effect reaches the 80% level.
